Earlier results, collected in patent US20140065213A1, “Sustained Release Paracetamol Formulations” (GlaxoSmithKline, LLC, priority 2011, published 2014).

tmax (maximum plasma concentration) (oral doses of conventional immediate release tablets): 0.5 to 1.5 h | elimination half-life (reported): 1.9 to 2.5 h
Compound: CC(=O)Nc1ccc(O)cc1 [paracetamol, N-acetyl-p-aminophenol]
